Results on one molecule are retold here after US8906888B2, “Low-calcemic 16,23-diene 25-oxime analogs of 1α,25-dihydroxy vitamin D3” (Cytochroma Inc., priority 2005, dated 2014).

One assay concerns MCF-7 cells. The experiment in a line: [3H]-Thymidine proliferation assay with MCF-7 cells. The class given is cell-based. To be noted: breast cancer cells, 3 days, 3H-thymidine incorporation. As to the method:
1. Preparation of Cell Suspension. • When MCF-7 cells were 70-80% confluent, aspirated growth media. Washed the cells with 1×PBS. Trypsinized with trypsin-EDTA from the plate, collected cells from the tissue culture flask, centrifuged (500×g, 5 min) and resuspended in growth media.
2. Cell Plating. • Counted the cells and adjusted the cell density to 25,000/ml. Added 200 μl per well in a 96 well plate. Incubated plate for 24 h at 37° C. in a humidified atmosphere plus 5% CO2. Aspirated used media and replaced with 175 μl per well with proliferation media.
3. Substrate Addition. • Added 25 μl of compound (final concentration 10^−7 M, 5×10^−8 M, 10^−8 M, 5×10^−9 M, 10^−10 M or 0 M) into each designated well. Incubated plates for 3 days at 37° C. in a humidified atmosphere plus 5% CO2.
4. ^3H-Thymidine Incorporation. • Added ^3H-thymidine at 0.02 μCi per well and incubated at 37° C. in a humidified atmosphere plus 5% CO2 for 6 h.
5. Plate Harvesting. • Aspirated all media and washed cells with 1×PBS. Trypsinized cells for 30 min at 37° C. in a humidified atmosphere plus 5% CO2. Harvested cells onto a 96 well filter plate (Millipore) using a Tomtec Cell Harvestor, according to manufacturers instructions.
6. Scintillation Counting. • Added 25 μl of scintillation fluid per well. Counted the plate using a scintillation counter. Results: Compound (20R)-I(e) inhibited MCF-7 cell proliferation.

In a further assay the target is T1, CYP27A1 (Homo sapiens, UniProt Q02318).
T1 sequence (Q02318 34-531): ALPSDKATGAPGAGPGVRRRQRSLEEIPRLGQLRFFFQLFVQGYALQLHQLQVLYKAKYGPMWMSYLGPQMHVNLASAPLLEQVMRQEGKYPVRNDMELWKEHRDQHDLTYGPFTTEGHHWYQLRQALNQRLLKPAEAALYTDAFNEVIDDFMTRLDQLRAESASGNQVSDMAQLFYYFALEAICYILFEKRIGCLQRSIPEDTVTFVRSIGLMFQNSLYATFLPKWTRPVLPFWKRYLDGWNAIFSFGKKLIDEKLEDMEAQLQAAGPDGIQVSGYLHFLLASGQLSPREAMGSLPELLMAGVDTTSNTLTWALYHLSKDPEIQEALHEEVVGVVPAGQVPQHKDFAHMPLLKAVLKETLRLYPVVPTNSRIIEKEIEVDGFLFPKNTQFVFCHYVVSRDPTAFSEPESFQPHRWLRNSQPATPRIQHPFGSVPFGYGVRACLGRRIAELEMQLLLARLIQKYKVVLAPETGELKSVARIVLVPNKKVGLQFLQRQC
The experiment in a line: CYP27A1 enzyme assay. In kind it is biochemical. To be noted: read-out: IC50 in the inhibition of CYP27A1.

The target in assay [1] is T2, DBP (vitamin D binding protein) (Homo sapiens, UniProt P02774).
T2 construct: Human plasma diluted to 1:5000 with Tris buffer/gelatin solution; from tissue; host or cells: human plasma
T2 sequence (P02774 17-474): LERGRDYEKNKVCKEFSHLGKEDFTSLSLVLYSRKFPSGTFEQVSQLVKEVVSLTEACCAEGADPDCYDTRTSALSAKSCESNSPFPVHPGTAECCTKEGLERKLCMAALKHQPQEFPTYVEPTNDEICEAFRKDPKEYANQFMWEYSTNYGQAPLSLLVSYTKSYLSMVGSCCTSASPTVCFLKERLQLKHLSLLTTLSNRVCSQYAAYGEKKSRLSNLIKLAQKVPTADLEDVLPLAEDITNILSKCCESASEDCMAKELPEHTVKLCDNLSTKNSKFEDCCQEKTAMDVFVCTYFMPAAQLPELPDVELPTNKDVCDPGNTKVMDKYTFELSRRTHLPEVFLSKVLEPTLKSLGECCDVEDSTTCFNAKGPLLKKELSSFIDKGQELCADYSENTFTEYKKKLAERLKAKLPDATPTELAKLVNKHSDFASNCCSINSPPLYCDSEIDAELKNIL
Briefly: DBP binding assay (human plasma, [3H]-25(OH)D3 displacement). To be noted: human plasma diluted 1:5000; read-out: B50 (DBP binding, displacement of 50 percent [3H]-25(OH)D3). Here is the method:
1. Tris buffer: • 22.50 g Tris-HCI • 500 ml H2O
5. DBP (vitamin D binding protein) (human plasma)
2. Dextran Coated Charcoal Solution • (1) preparation of charcoal solution • Norit decolorizing neutral charcoal 2.0 g • Tris buffer 150 mL • Stirring • (2) preparation of dextran solution • Dextran T—70 0.2 g • Tris buffer 50 ml • (3) preparation of dextran coated charcoal solution • Slowly dripped the dextran solution into charcoal solution with stirring. • Kept refrigerated overnight. • Thirty minute before use, kept it on ice with continuous mixing. • This solution can be kept in 4° C. for 2 month.
4. DBP Solution • Human plasma diluted to 1:5000 with Tris buffer/gelatin solution
8. [^3H-26,27]-[…] Solution • Stock solution diluted in Tris buffer, 20,000 CPM/50 μl. (C) Assay
(D) Calculation: • The amount of 25(OH)D3 to displace 50 percent [3H]-25(OH)D3 was calculated as B50 for 25(OH)D3 DBP binding. The DBP binding of other compounds was calculated as B50 relative to a value of 1 for 25(OH)D3.

With `C=C1/C(=C\C=C2/CCC[C@]3(C)C([C@H](C)C/C=C/C(=NOC)C(C)(C)C)=CC[C@@H]23)C[C@@H](O)C[C@@H]1O` [(20R)-I(e)], the “Inhibition of MCF-7 cell proliferation” value in the assay with MCF-7 cells is recorded as “inhibited”. Moreover, the IC50 on CYP27A1 is above 1 µM; in assay [1], above 3.5 µM.
